Results on ten compounds are retold here after ChEMBL document CHEMBL5465560, “Selectivity Literature for EUbOPEN Chemogenomic Library” (2024).

Assay [1] deals with Serine/threonine-protein kinase pim-2 (Homo sapiens, UniProt Q9P1W9). The settings on record: at 10 µM.
Assay [2] addresses Ephrin type-A receptor 4 (Homo sapiens, UniProt P54764). Briefly: Selectivity interaction (Ambit KINOMEscan and KiNATiv profiling in Jurkat cells) EUB0000090b EPHA4. As to conditions: at 1 µM. In kind it is cell-based.
Assay [3] has as its target Calcium/calmodulin-dependent protein kinase kinase 2 (Homo sapiens) (UniProt Q96RR4). Briefly: Selectivity interaction (Ambit KINOMEscan and KiNATiv profiling in Jurkat cells) EUB0000090b CAMKK2. In kind it is cell-based. As to conditions: at 1 µM.
Assay [4] deals with Inhibitor of nuclear factor kappa-B kinase subunit epsilon (Homo sapiens, UniProt Q14164). Briefly: Selectivity interaction (Enyzmatic assay) EUB0000601a IKBKE.
Sequence of Inhibitor of nuclear factor kappa-B kinase subunit epsilon (Q14164 whole entry): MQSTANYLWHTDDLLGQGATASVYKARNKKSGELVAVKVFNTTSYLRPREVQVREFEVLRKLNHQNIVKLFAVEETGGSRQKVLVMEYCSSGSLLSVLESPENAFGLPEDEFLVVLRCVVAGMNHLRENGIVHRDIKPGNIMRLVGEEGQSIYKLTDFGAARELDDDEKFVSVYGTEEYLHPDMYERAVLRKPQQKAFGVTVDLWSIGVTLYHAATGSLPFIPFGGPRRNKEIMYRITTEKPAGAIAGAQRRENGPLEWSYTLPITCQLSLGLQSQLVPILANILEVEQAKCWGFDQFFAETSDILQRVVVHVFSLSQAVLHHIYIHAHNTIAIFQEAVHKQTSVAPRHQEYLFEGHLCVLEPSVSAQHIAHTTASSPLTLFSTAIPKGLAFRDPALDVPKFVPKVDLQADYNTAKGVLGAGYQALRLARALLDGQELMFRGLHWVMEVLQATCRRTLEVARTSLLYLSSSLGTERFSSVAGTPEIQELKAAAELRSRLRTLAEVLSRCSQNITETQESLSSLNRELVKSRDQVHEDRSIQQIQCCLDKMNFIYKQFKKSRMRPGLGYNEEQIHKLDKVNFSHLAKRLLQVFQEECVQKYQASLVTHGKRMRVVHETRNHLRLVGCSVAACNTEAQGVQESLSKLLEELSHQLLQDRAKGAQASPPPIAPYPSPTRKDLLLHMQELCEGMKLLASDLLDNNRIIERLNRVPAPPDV
Assay [5] has as its target Mitogen-activated protein kinase 9 (Homo sapiens, UniProt P45984). Briefly: Selectivity interaction (KinomeScan (DiscoverX)) EUB0001079a MAPK9. As to conditions: at 1 µM.
Assay [6] deals with Tyrosine-protein kinase JAK1 (Homo sapiens, UniProt P23458). Briefly: Selectivity interaction (KinomeScan (DiscoverX)) EUB0001079a JAK1. As to conditions: at 1 µM.
Sequence of Tyrosine-protein kinase JAK1 (P23458 whole entry): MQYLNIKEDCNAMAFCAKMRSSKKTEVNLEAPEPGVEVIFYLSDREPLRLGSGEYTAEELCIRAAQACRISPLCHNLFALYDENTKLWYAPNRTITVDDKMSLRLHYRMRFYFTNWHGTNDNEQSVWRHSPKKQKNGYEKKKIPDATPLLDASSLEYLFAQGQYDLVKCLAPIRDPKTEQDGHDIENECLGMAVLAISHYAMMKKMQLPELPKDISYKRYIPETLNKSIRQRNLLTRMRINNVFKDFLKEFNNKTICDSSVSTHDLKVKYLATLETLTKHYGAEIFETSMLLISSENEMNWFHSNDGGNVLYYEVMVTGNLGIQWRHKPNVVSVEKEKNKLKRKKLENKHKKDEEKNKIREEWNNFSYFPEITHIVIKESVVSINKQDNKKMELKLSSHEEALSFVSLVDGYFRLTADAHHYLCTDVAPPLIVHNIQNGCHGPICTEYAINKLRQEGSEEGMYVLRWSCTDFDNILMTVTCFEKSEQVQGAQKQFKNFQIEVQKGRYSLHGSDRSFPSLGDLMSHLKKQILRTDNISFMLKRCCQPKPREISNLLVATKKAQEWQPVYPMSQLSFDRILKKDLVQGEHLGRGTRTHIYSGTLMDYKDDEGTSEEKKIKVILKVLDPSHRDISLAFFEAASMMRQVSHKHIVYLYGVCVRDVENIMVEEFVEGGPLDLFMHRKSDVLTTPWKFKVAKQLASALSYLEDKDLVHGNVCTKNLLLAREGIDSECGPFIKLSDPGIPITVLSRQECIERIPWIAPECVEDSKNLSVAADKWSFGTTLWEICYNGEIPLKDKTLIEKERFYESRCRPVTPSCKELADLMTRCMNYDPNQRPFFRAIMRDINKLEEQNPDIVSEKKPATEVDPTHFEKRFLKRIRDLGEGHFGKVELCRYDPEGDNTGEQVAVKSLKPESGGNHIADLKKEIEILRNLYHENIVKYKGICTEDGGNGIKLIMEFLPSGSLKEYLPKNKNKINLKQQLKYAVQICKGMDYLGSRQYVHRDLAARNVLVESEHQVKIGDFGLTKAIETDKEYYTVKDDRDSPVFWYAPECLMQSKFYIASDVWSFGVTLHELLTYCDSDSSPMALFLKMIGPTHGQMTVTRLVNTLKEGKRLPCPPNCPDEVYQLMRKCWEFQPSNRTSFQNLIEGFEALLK
For assay [7], the target named is Activated CDC42 kinase 1 (Homo sapiens, UniProt Q07912). Briefly: Selectivity interaction (KinomeScan (DiscoverX)) EUB0001079a TNK2. As to conditions: at 1 µM.
Sequence of Activated CDC42 kinase 1 (Q07912 whole entry, looked up): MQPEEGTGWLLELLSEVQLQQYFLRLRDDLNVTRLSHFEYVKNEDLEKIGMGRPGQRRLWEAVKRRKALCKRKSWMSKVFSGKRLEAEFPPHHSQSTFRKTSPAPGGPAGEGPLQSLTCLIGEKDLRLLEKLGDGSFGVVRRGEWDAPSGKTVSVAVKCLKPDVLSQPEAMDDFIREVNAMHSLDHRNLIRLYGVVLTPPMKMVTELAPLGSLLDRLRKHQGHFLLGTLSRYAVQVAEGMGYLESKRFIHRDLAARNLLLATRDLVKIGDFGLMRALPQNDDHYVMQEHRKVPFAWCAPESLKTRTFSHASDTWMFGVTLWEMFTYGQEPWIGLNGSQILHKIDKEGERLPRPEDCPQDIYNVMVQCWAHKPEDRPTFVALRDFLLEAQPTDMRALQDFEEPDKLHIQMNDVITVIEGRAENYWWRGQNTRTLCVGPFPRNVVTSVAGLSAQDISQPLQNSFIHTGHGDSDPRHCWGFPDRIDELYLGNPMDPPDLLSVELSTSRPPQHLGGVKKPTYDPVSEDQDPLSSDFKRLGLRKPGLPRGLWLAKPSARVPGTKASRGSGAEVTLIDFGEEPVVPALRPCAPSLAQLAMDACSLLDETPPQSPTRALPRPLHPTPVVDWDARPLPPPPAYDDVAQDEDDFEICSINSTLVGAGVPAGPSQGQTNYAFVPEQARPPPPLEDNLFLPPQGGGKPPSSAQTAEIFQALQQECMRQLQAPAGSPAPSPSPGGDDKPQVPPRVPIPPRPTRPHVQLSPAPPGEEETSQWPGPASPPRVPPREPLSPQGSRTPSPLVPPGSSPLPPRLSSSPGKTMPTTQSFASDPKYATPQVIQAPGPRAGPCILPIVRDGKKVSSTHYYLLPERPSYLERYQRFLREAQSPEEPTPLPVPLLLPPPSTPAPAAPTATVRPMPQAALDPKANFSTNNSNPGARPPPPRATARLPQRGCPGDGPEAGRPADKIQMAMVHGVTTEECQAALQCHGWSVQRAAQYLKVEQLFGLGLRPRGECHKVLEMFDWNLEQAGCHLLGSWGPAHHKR
Assay [8] deals with Protein arginine N-methyltransferase 1 (Homo sapiens, UniProt Q99873). Briefly: Selectivity interaction (Scintillation proximity assays) EUB0000255b PRMT1.
Sequence of Protein arginine N-methyltransferase 1 (Q99873 whole entry): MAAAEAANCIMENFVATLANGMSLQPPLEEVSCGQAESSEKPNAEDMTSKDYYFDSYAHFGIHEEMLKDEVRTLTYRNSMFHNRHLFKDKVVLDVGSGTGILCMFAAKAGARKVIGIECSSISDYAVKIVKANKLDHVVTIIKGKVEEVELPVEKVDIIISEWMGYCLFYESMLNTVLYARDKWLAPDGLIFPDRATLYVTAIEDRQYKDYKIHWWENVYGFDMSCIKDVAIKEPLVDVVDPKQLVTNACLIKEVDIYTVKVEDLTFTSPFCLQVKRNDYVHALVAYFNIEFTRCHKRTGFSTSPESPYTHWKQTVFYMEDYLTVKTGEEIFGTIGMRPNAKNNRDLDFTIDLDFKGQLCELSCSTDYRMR
Assay [9] relates to Epidermal growth factor receptor (Homo sapiens), P00533 [UNDEFINED MUTATION]. Briefly: Selectivity interaction (KinomeScan (DiscoverX)) EUB0000655a EGFR. The settings on record: at 10 µM.
Assay [10] addresses T1, Rhodopsin kinase GRK1 (Homo sapiens) (UniProt Q15835).
T1 sequence (whole entry): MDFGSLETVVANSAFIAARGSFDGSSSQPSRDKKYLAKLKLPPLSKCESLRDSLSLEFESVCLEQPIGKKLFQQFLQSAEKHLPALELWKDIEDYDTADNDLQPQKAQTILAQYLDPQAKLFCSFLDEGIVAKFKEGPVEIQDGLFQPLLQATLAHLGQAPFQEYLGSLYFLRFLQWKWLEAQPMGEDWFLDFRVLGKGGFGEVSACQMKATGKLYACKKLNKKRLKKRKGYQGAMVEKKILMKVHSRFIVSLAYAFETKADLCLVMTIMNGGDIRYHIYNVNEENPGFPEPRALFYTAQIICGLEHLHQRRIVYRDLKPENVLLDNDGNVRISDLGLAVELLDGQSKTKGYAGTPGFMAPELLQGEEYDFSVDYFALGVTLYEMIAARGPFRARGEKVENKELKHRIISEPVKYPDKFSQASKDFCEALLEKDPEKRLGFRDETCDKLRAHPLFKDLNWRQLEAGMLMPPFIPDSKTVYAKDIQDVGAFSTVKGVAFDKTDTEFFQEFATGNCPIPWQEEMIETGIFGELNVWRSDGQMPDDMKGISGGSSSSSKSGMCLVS
Briefly: Selectivity interaction (KinomeScan (DiscoverX)) EUB0000655a GRK1. As to conditions: at 10 µM.

The target of assay [11] is T2, Inhibitor of nuclear factor kappa-B kinase subunit alpha (Homo sapiens) (UniProt O15111).
T2 sequence (whole entry): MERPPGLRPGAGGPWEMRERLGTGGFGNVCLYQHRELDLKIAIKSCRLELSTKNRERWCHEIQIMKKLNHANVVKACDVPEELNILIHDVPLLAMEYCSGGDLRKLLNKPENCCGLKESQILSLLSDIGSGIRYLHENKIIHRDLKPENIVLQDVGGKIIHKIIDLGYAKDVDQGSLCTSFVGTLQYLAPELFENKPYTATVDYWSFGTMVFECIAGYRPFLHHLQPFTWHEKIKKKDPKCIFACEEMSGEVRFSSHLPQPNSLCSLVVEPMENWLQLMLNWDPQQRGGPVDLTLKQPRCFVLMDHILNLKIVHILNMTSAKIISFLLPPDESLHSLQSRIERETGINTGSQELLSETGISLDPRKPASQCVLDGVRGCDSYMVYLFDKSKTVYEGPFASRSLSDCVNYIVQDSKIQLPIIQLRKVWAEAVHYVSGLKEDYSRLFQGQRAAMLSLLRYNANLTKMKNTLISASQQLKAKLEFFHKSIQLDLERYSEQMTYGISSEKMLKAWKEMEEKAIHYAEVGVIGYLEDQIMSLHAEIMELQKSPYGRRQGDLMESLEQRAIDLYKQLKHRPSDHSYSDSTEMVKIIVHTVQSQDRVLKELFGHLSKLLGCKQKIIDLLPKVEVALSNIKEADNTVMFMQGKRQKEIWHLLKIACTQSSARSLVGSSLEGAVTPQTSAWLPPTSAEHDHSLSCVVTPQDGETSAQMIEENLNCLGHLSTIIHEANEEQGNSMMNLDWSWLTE
Briefly: Selectivity interaction (KinomeScan (DiscoverX)) EUB0000655a CHUK. The settings on record: at 10 µM.

The target in assay [12] is Serine/threonine-protein kinase 38 (Homo sapiens) (UniProt Q15208). Briefly: Selectivity interaction (ActivX KiNativ screen (kinase selectivity in THP-1 cell lysates)) EUB0000639a STK38. In kind it is subcellular. The settings on record: lysate, at 0.04 µM.
Assay [13] has as its target T3, Aurora kinase A (Homo sapiens) (UniProt O14965).
T3 sequence (whole entry): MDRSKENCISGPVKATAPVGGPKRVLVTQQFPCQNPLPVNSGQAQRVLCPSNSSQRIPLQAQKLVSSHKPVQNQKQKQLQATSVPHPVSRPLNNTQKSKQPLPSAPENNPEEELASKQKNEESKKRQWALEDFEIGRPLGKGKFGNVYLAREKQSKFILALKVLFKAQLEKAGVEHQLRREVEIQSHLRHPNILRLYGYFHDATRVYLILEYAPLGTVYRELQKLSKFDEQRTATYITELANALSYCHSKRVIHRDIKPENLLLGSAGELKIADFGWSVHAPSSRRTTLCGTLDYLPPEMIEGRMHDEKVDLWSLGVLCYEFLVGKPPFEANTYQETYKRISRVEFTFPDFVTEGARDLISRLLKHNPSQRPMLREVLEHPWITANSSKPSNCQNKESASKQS
Briefly: Selectivity interaction (ActivX KiNativ screen (kinase selectivity in THP-1 cell lysates)) EUB0000639a STK6. In kind it is subcellular. The settings on record: lysate, at 1 µM.

The target in assay [14] is Histone-lysine N-methyltransferase ASH1L (Homo sapiens) (UniProt Q9NR48). Briefly: Selectivity interaction (Human bromodomain panel (DSF assay)) EUB0000233b ASH1L. (In DSF a fluorescence change marks the thermal transition of the protein.)
The target of assay [15] is Serine/threonine-protein kinase N2 (Homo sapiens, UniProt Q16513). Briefly: Selectivity interaction (KinomeScan (DiscoverX)) EUB0001619a PKN2. The settings on record: at 1 µM.
Assay [16] addresses Macrophage-stimulating protein receptor (Homo sapiens, UniProt Q04912). Briefly: Selectivity interaction (KinomeScan (DiscoverX)) EUB0001619a MST1R. The settings on record: at 1 µM.
Assay [17] concerns the target Cyclin-dependent kinase 17 (Homo sapiens) (UniProt Q00537). Briefly: Selectivity interaction (ActivX KiNativ screen (ex vivo kinase selectivity in human PBMCs)) EUB0001619a CDK17. The settings on record: PBMC, at 1 µM. In kind it is cell-based.
Assay [18] concerns the target Citron Rho-interacting kinase (Homo sapiens) (UniProt O14578). Briefly: Selectivity interaction (KinomeScan (DiscoverX)) EUB0000618a CIT. The settings on record: at 10 µM.

pIC50: −log10 of the molar value. Some results are limits rather than exact numbers.

Sequence of Calcium/calmodulin-dependent protein kinase kinase 2 (Homo sapiens) (Q96RR4 2-588 limits assumed): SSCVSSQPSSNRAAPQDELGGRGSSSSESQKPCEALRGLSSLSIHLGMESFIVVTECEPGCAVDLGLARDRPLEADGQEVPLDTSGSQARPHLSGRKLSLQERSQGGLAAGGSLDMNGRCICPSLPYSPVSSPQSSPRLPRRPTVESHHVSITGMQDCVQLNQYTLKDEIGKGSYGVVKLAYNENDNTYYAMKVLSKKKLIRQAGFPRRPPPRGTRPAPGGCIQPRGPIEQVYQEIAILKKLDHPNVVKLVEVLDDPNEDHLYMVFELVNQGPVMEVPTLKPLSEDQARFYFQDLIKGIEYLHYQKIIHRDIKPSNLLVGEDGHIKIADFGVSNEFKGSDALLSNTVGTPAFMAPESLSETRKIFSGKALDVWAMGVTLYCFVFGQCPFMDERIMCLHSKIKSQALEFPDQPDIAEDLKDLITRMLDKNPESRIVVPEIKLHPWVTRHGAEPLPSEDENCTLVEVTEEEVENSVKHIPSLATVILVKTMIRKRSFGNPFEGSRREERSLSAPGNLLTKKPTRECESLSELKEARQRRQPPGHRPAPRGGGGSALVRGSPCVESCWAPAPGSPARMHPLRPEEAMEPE
Sequence of Ephrin type-A receptor 4 (P54764 whole entry): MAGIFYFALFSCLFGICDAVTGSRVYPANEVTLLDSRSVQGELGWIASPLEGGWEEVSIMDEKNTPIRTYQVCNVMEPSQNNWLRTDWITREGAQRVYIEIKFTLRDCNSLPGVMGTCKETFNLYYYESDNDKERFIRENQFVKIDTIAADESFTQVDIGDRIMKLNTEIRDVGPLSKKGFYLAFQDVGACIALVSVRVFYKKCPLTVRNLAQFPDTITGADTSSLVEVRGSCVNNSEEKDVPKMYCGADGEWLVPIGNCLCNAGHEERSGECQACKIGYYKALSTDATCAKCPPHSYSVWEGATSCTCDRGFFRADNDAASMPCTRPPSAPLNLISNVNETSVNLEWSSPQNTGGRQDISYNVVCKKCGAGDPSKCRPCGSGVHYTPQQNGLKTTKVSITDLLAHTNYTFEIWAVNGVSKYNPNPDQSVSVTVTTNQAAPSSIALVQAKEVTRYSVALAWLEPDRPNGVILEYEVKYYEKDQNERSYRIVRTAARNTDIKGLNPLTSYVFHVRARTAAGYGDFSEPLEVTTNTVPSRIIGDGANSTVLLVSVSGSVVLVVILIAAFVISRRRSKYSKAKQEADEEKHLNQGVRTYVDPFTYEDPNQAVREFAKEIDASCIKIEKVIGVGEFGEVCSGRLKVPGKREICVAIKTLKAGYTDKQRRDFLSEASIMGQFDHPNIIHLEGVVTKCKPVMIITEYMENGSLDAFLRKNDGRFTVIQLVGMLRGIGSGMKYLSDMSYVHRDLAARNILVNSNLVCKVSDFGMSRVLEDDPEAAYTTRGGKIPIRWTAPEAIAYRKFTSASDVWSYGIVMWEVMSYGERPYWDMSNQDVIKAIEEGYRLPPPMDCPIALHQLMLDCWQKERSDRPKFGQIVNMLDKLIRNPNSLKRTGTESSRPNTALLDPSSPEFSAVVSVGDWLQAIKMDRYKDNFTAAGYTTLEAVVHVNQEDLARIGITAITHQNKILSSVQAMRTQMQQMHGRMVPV

On to `Cc1cc([C@@H](C)Nc2ccccc2C(=O)O)c2nc(N3CCOCC3)cc(=O)n2c1` [AZD-6482], for which, in assay [1], the % of control is 70%.

Take `CN(C)C/C=C/C(=O)Nc1ccc(C(=O)N2CCCC(Nc3ncc(Cl)c(-c4c[nH]c5ccccc45)n3)C2)cc1` (stereo not drawn): the % of control in assay [2] is 98%; in assay [3] it was 81%.

By pIC50 is commonly meant −log10 of the IC50, conventionally taken in molar units. Low values mean a high IC50, high ones a low IC50. For the compound `CCc1cc(Nc2nccc(-c3c(-c4ccc(OC)c(C(=O)Nc5c(F)cccc5F)c4)nc4ccccn34)n2)c(OC)cc1N1CCC(N2CCN(S(C)(=O)=O)CC2)CC1`, the pIC50 in assay [4] is 5.49.

As for `Nc1cnc(N2CCc3cc(S(=O)(=O)Nc4c(F)cc(Cl)cc4F)cc(N4CCCC4=O)c32)nc1` [TP-020n], the % of control came to 84% in [5], 93% in assay [6] and 91% in assay [7].

`COCCN1CCC(c2cc(CN(C)C(=O)c3cccc(Oc4ccccc4)c3)ccn2)CC1` gave a pIC50 in assay [8] of less than 5.00.

`CN(C)CCOc1ccc(-c2nc(-c3ccncc3)c(-c3ccc4c(c3)CC/C4=N\O)[nH]2)cc1`: the % of control stood at 67% in assay [9], 91% in [10] and 92% in assay [11].

`CC[C@@H]1[C@H](F)C(=O)N[C@@H]1COc1nccc2cc(C(N)=O)c(OC)cc12` [ZIMLOVISERTIB]: the % of inhibition in [12] was -3.9%; in [13], 20%.

In turn, `CN(C)CCCOc1ccc(-c2cc(NCCCn3cccn3)nc(S(C)(=O)=O)n2)cc1` yielded a dTM in assay [14] of less than 2 K.

Consider `N#Cc1cccc(-c2c[nH]c3ncnc(N4CCOCC4)c23)c1`, for which the % of control stood at 35% in assay [15] and 95% in assay [16]. Also, in assay [17], the % of inhibition was found to be 25%.

As for `O[C@H]1CC[C@H](Nc2ncc3nc(Nc4c(F)cc(F)cc4F)n([C@H]4CCOC4)c3n2)CC1`, the % of control in assay [18] is 96%.
